≈ marks a conversion by molar mass, not a printed value.
Key:
Format in all cases: cell-based
K. pneumoniae 4108 = assay: MIC against K. pneumoniae 4108; settings: K. pneumoniae 4108, KPC-3, TEM-166, SHV-12, SHV-141
Protocol: (§1) As shown, the foregoing composition was tested for minimum inhibitory concentration (MIC, μg/mL) against bacteria listed in Tables 2-3.

S. pneumoniae 2404 = assay: MIC against S. pneumoniae 2404; settings: Table 2, S. pneumoniae 2404, Pen S
From the text: (§2) Without limitation, the present cephem compounds alone, or in combination with one or more β-lactamase inhibitors, may provide improved antibacterial efficacy, particularly in antibiotic-resistant bacterial strains. It is believed that the present compounds may be structurally different from known compounds and, as a result, may be more basic in nature. It is an advantage that the present compounds may extend the spectrum of effective bacterial compounds, particularly against previously-resistant bacteria (e.g. ESKAPE organisms), and/or gram negative bacteria, without significant side effects. In a preferred embodiment, the present cephem compound may comprise reference compound ceftazidime, which may be used alone, or in combination with one or more β-lactamase inhibitors, such as NXL-104. As shown, the foregoing composition was tested for minimum inhibitory concentration (MIC, μg/mL) against bacteria listed in Tables 2-3.

S. pneumoniae 2407 = assay: MIC against S. pneumoniae 2407; settings: Table 2, S. pneumoniae 2407, Pen S
From the text: as §2

C. freundii 2487 = assay: MIC against C. freundii 2487; settings: Table 2, C. freundii 2487, Caz R, IMP S
From the text: as §2

S. aureus 3144 = assay: MIC against S. aureus 3144; settings: Table 2, S. aureus 3144, MSSA
From the text: as §2

E. coli 4080 = assay: MIC against E. coli 4080; settings: Table 2, E. coli 4080, TEM-10
From the text: as §2

C. freundii 580 = assay: MIC against C. freundii 580; settings: Table 2, C. freundii 580, Caz R, IMP S
From the text: as §2

E. cloacae 2709 = assay: MIC against E. cloacae 2709; settings: Table 3, E. cloacae 2709, KPC-3, VIM-1
Protocol: as §1

E. coli 4101 = assay: MIC against E. coli 4101; settings: Table 2, E. coli 4101, CTX-M-14, TEM-1
From the text: as §2

K. pneumoniae 2697 = assay: MIC against K. pneumoniae 2697; settings: Table 2, K. pneumoniae 2697, IMP-4
From the text: as §2

S. pneumoniae 2392 = assay: MIC against S. pneumoniae 2392; settings: Table 2, S. pneumoniae 2392, Pen R
From the text: as §2

K. pneumoniae 4107 = assay: MIC against K. pneumoniae 4107; settings: K. pneumoniae 4107, KPC-2, TEM-1, SHV-11
Protocol: as §1

E. cloacae 2706 = assay: MIC against E. cloacae 2706; settings: Table 3, E. cloacae 2706, VIM-1, KPC-3
Protocol: as §1

S. pneumoniae 2403 = assay: MIC against S. pneumoniae 2403; settings: Table 2, S. pneumoniae 2403, Pen S
From the text: as §2

[1] = Table 2, in combination with NXL-104
[2] = Table 3, in combination with NXL-104

- MIC (K. pneumoniae 4108; Table 2, alone): 16.00 µg/mL (≈ 29.3 µM)
- MIC (K. pneumoniae 4108; [1]): 4.00 µg/mL
- MIC (K. pneumoniae 4108; Table 3, alone): >32 µg/mL
- MIC (K. pneumoniae 4108; [2]): 4 µg/mL
- MIC (S. pneumoniae 2404; alone): 32.00 µg/mL
- MIC (S. pneumoniae 2404; in combination with NXL-104): 32.00 µg/mL
- MIC (S. pneumoniae 2407; alone): 4.00 µg/mL
- MIC (S. pneumoniae 2407; in combination with NXL-104): 32.00 µg/mL
- MIC (C. freundii 2487; alone): 16.00 µg/mL
- MIC (C. freundii 2487; in combination with NXL-104): 8.00 µg/mL
- MIC (S. aureus 3144; alone): 16.00 µg/mL
- MIC (S. aureus 3144; in combination with NXL-104): 16.00 µg/mL
- MIC (E. coli 4080; alone): 16.00 µg/mL
- MIC (E. coli 4080; in combination with NXL-104): 4.00 µg/mL
- MIC (C. freundii 580; alone): 8.00 µg/mL
- MIC (C. freundii 580; in combination with NXL-104): 2.00 µg/mL
- MIC (E. cloacae 2709; alone): >32 µg/mL
- MIC (E. cloacae 2709; in combination with NXL-104): 8 µg/mL
- MIC (E. coli 4101; alone): 0.50 µg/mL
- MIC (E. coli 4101; in combination with NXL-104): 0.25 µg/mL
- MIC (K. pneumoniae 2697; alone): 8.00 µg/mL
- MIC (K. pneumoniae 2697; in combination with NXL-104): 2.00 µg/mL
- MIC (S. pneumoniae 2392; alone): 16.00 µg/mL
- MIC (S. pneumoniae 2392; in combination with NXL-104): 16.00 µg/mL
- MIC (K. pneumoniae 4107; Table 2, alone): 32.00 µg/mL (≈ 58.5 µM)
- MIC (K. pneumoniae 4107; [1]): 8.00 µg/mL
- MIC (K. pneumoniae 4107; Table 3, alone): >32 µg/mL
- MIC (K. pneumoniae 4107; [2]): 4 µg/mL
- MIC (E. cloacae 2706; alone): >32 µg/mL
- MIC (E. cloacae 2706; in combination with NXL-104): 32 µg/mL
- MIC (S. pneumoniae 2403; alone): 0.12 µg/mL
- MIC (S. pneumoniae 2403; in combination with NXL-104): 0.12 µg/mL
Structure (SMILES): CC(C)(O/N=C(\C(=O)N[C@@H]1C(=O)N2C(C(=O)[O-])=C(C[n+]3ccccc3)CS[C@H]12)c1csc(N)n1)C(=O)O [CAZ, ceftazidime, reference compound]

From USRE48097E1, “Cephem compounds, their production and use” (priority 2015, dated 2020)
